Assay results as given in PMC12229680, “Neuroprotective and intraocular pressure lowering effects of dual-functional memantine nitrate MN-08 on the experimental models of glaucoma” (Scientific Reports, 2025).

Assays:
[1] = tested on: preclinical models and glaucoma patients; design: method as in PMID 25488946, PMID 28234563, PMID 21396362; settings: cited from earlier work
[2] = tested on: retinal ganglion cells (RGCs) in retinal ischemia–reperfusion injury rats; assay: Retinal ischemia–reperfusion injury model in rats (HE staining, Brn-3a immunofluorescence); type: in vivo, rat; settings: Memantine 10 mg/kg tail vein, vs Model group
Description: Male Sprague Dawley rats were anesthetized with pentobarbital sodium (30 mg/kg, i.p.). Local anesthesia was administered to the corneas using tetracaine hydrochloride, followed by pupil dilation with tropicamide. A 30-gauge infusion needle was inserted into the anterior chamber of the eye and connected to a normal saline reservoir until the iris turned white. Retinal ischemia was maintained for 1 h at IOP of 110 mmHg. Upon careful withdrawal of the needle, IOP returned to normal, thereby inducing retinal ischemia–reperfusion injury. MN-08 (12 mg/kg) and Memantine (10 mg/kg) were administered via tail vein injection at 3 and 6 h post-surgery and continued twice daily for the subsequent two days. […]
Rats were euthanized by deep anesthetization with pentobarbital sodium (100 mg/kg, i.p.), and their eyes were enucleated for histology analysis. […] Ganglion cell complex (GCC) thickness and the RGCs numbers (retinal ganglion cell layer) were measured and analyzed with ImageJ software.
Eyes of sacrificed rats were rapidly removed; the cornea was cut along the corneoscleral rim after rinsing with PBS under the microscope. […] RGCs were observed using a fluorescence microscope (Olympus, Tokyo, Japan). The number of Brn-3a positive cells was counted manually in five randomly selected fields of view for each region of the whole-mount retina (including the center, mid-periphery, and periphery).

[3] = tested on: human trabecular meshwork cells (HTMCs); assay: cGMP ELISA assay in HTMCs; type: cell-based; settings: 30 min
Description: Primary human trabecular meshwork cells (HTMCs) were isolated from the juxtacanalicular and corneoscleral regions of the human eye from ScienCell Research Laboratories (ScienCell, Carlsbad, CA). HTMCs were maintained in a complete medium consisting of DMEM enriched with 10% fetal bovine serum (FBS) and antibiotics (100 U/ml penicillin and 100 μg/ml streptomycin). Cells were cultured in a humidified incubator containing 5% CO2 at 37 °C. Experiments are conducted using HTMCs between the 5th and 8th passages to avoid cellular senescence. All reagents were obtained from Gibco (San Diego, CA, USA).
HTMCs were seeded at a density of 2 × 10^5 cells per well in 6-well plates. When reaching 80% confluency, the cells were subsequently incubated overnight in low-serum medium (DMEM supplemented with 0.5% FBS). […] After incubating, cells were harvested and lysed, and the levels of cGMP were detected by an ELISA kit (Abcam Corporation, Cambridge, UK). The procedure was conducted following the instructions provided by the manufacturer.

glaucoma patients = settings: cited from earlier work
[4] = tested on: carbomer-induced glaucoma rabbit model; assay: Carbomer-induced experimental glaucoma model in rabbits (IOP); type: in vivo; settings: latanoprost 0.005% single topical instillation; 0-360 min
Description: The methods were performed as previously described. New Zealand rabbits were anesthetized using an auricular vein injection of 60 mg/kg pentobarbital sodium. Local anesthesia of the corneas was achieved using tetracaine hydrochloride, followed by pupil dilation with tropicamide. An experimental glaucoma model was established by bilaterally injecting 0.25% carbomer (0.1 mL) into the anterior eye chamber of the rabbits. On the fifth day post-carbomer injection, stable high IOP was induced in the rabbits. MN-08 (0.5%, 0.2%, 0.1%, and 0.02%) or latanoprost (0.005%) was administered with a single topical instillation. IOP was measured continuously at 0, 30, 60, 120, 240, and 360 min following instillation with MN-08 or latanoprost (with 5 consecutive measurements being averaged to obtain a single value). At the last IOP measurement, the rabbits were euthanized under sodium pentobarbital anesthesia (100 mg/kg, i.v).

## O=C(CCC/C=C\C[C@@H]1[C@@H](CC[C@@H](O)CCc2ccccc2)[C@H](O)C[C@@H]1O)OCCCCO[N+](=O)[O-] [Latanoprostene bunod (LBN), Latanoprostene bunod]
[1]
  reduction in IOP compared to latanoprost: great reduction

## CC12CC3CC(C)(C1)CC(N)(C3)C2 [Memantine]
[2]; 3 and 6 h post-surgery then twice daily for two days
  degree of retinal damage (HE staining): reduced
[2]
  survival of RGCs (Brn-3a positive cells): significantly increased
[3]; memantine 10 μM
  cGMP levels: neither latanoprost (0.1 μM) nor memantine (10 μM) had any statistically significant effects
Glaucoma patients; clinical trials
  glaucoma progression: failed to significantly delay
Glaucoma patients; phase 3 clinical trial
  effect in protecting visual function: no significant effect

## CC(C)OC(=O)CCC/C=C\C[C@@H]1[C@@H](CC[C@@H](O)CCc2ccccc2)[C@H](O)C[C@@H]1O [latanoprost]
[4]
  carbomer-induced IOP elevation (change from baseline): reduced
[3]; latanoprost 0.1 μM
  cGMP levels: neither latanoprost (0.1 μM) nor memantine (10 μM) had any statistically significant effects
